Biological target: T1, YesU (Bacillus subtilis, UniProt O31524)
T1 construct: captured by His tag on NTA chip
T1 sequence (O31524 1-220): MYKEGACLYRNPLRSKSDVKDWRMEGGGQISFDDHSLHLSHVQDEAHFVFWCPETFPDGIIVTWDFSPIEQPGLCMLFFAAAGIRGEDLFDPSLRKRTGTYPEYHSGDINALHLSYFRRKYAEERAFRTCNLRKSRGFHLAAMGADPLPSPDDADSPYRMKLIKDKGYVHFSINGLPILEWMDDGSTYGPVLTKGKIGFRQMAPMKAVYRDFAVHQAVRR
Assay: SPR, steady state, single cycle, Biacore T100
Assay type: binding
Conditions: His-YesU on Ni-NTA chip; PBS-MgCl2 pH 7.4; 25 °C
From the text: SPR, steady state, single cycle, Biacore T100 on YesU

Row | Kd [µM] | SMILES
1 | 0.44 ± 0.02 | CC(=O)N[C@H]1[C@H](O[C@H]2[C@@H](O)[C@@H](CO)O[C@@H](O[C@H]3[C@H](O)[C@@H](O)C(O)O[C@@H]3CO)[C@@H]2O)O[C@H](CO)[C@@H](O[C@@H]2O[C@H](CO)[C@H](O)[C@H](O)[C@H]2O)[C@@H]1O (stereo partly drawn) [1H, Galβ1-4GlcNAcβ1-3Galβ1-4Glc]
2 | 1.13 ± 0.02 | CC(=O)N[C@H]1[C@H](O[C@H]2[C@H](O)[C@@H](NC(C)=O)[C@H](O[C@H]3[C@H](O)[C@@H](NC(C)=O)C(O)O[C@@H]3CO)O[C@@H]2CO)O[C@H](CO)[C@@H](O[C@@H]2O[C@H](CO)[C@@H](O[C@@H]3O[C@H](CO)[C@@H](O[C@@H]4O[C@H](CO)[C@@H](O)[C@H](O)[C@H]4NC(C)=O)[C@H](O)[C@H]3NC(C)=O)[C@H](O)[C@H]2NC(C)=O)[C@@H]1O (stereo partly drawn) [4D, GlcNAcβ1-4GlcNAcβ1-4GlcNAcβ1-4GlcNAcβ1-4GlcNAcβ 1-4GlcNAc]
3 | 1.23 ± 0.02 | CC(=O)N[C@H]1[C@H](O[C@H]2[C@@H](O)[C@@H](CO)O[C@@H](O[C@H]3[C@H](O)[C@@H](O)C(O)O[C@@H]3CO)[C@@H]2O)O[C@H](CO)[C@@H](O)[C@@H]1O[C@@H]1O[C@H](CO)[C@H](O)[C@H](O)[C@H]1O[C@@H]1O[C@@H](C)[C@@H](O)[C@@H](O)[C@@H]1O (stereo partly drawn) [7A, Fucα1-2Galβ1-3GlcNAcβ1-3Galβ1-4Glc]
4 | 0.14 ± 0.001 | CC(=O)N[C@H]1[C@H](O[C@H]2[C@@H](O)[C@@H](CO)O[C@@H](O[C@H]3[C@H](O)[C@@H](O)C(O)O[C@@H]3CO)[C@@H]2O)O[C@H](CO)[C@@H](O[C@@H]2O[C@H](CO)[C@H](O)[C@H](O)[C@H]2O)[C@@H]1O[C@@H]1O[C@@H](C)[C@@H](O)[C@@H](O)[C@@H]1O (stereo partly drawn) [7C, Galβ1-4(Fucα1-3)GlcNAcβ1-3Galβ1-4Glc]
5 | 0.34 ± 0.01 | CC(=O)N[C@H]1[C@H](O[C@H]2[C@@H](O)[C@@H](CO)O[C@@H](O[C@H]3[C@H](O[C@@H]4O[C@@H](C)[C@@H](O)[C@@H](O)[C@@H]4O)[C@@H](O)C(O)O[C@@H]3CO)[C@@H]2O)O[C@H](CO)[C@@H](O[C@@H]2O[C@@H](C)[C@@H](O)[C@@H](O)[C@@H]2O)[C@@H]1O[C@@H]1O[C@H](CO)[C@H](O)[C@H](O)[C@H]1O (stereo partly drawn) [7E, Galβ1-3(Fucα1-4)GlcNAcβ1-3Galβ1-4(Fucα1-3)Glc]
6 | 0.36 ± 0.01 | C[C@@H]1O[C@@H](O[C@H]2C(O)O[C@H](CO)[C@H](O)[C@@H]2O)[C@@H](O)[C@H](O)[C@@H]1O (stereo partly drawn) [7F, Fucα1-2Gal]
7 | 0.15 ± 0.006 | CC(=O)N[C@H]1C(O)O[C@H](CO)[C@@H](O[C@@H]2O[C@H](CO)[C@H](O)[C@H](O)[C@H]2O)[C@@H]1O[C@@H]1O[C@@H](C)[C@@H](O)[C@@H](O)[C@@H]1O (stereo partly drawn) [7I, Galβ1-4(Fucα1-3)GlcNAc]
8 | 0.42 ± 0.004 | CC(=O)N[C@H]1C(O)O[C@H](CO)[C@@H](O[C@@H]2O[C@@H](C)[C@@H](O)[C@@H](O)[C@@H]2O)[C@@H]1O[C@@H]1O[C@H](CO)[C@H](O)[C@H](O)[C@H]1O (stereo partly drawn) [7J, Galβ1-3(Fucα1-4)GlcNAc]
9 | 7.63 ± 0.3 | CC(=O)N[C@H]1[C@@H](O[C@H]2[C@@H](O)[C@@H](CO)OC(O)[C@@H]2O[C@@H]2O[C@@H](C)[C@@H](O)[C@@H](O)[C@@H]2O)O[C@H](CO)[C@H](O)[C@@H]1O (stereo partly drawn) [7K, GalNAcα1-3(Fucα1-2)Gal]
10 | 0.19 ± 0.003 | C[C@@H]1O[C@@H](O[C@H]2C(O)O[C@H](CO)[C@H](O)[C@@H]2O[C@H]2O[C@H](CO)[C@H](O)[C@H](O)[C@H]2O)[C@@H](O)[C@H](O)[C@@H]1O (stereo partly drawn) [7M, Galα1-3(Fucα1-2)Gal]
11 | 0.34 ± 0.002 | CC(=O)N[C@H]1C(O)O[C@H](CO)[C@@H](O[C@@H]2O[C@H](CO)[C@H](O)[C@H](O)[C@H]2O[C@@H]2O[C@@H](C)[C@@H](O)[C@@H](O)[C@@H]2O)[C@@H]1O[C@@H]1O[C@@H](C)[C@@H](O)[C@@H](O)[C@@H]1O (stereo partly drawn) [7N, Fucα1-2Galβ1-4(Fucα1-3)GlcNAc]
12 | 0.34 ± 0.004 | CC(=O)N[C@H]1C(O)O[C@H](CO)[C@@H](O[C@@H]2O[C@H](CO)[C@H](O)[C@H](O)[C@H]2O[C@@H]2O[C@@H](C)[C@@H](O)[C@@H](O)[C@@H]2O)[C@@H]1O (stereo partly drawn) [7O, Fucα1-2Galβ1-4GlcNAc]
13 | 2.07 ± 0.02 | CC(=O)N[C@H]1C(O)O[C@H](CO)[C@@H](O[C@@H]2O[C@@H](C)[C@@H](O)[C@@H](O)[C@@H]2O)[C@@H]1O[C@@H]1O[C@H](CO)[C@H](O)[C@H](OS(=O)(=O)O)[C@H]1O (stereo partly drawn) [8A, SO3-3Galβ1-3(Fucα1-4)GlcNAc]
14 | 1.14 ± 0.03 | CC(=O)N[C@H]1[C@H](O[C@H]2[C@@H](O)[C@@H](CO)O[C@@H](O[C@H]3[C@H](O)[C@@H](O)C(O)O[C@@H]3CO)[C@@H]2O)O[C@H](CO)[C@@H](O[C@@H]2O[C@H](CO)[C@H](O)[C@H](O)[C@H]2O[C@@H]2O[C@@H](C)[C@@H](O)[C@@H](O)[C@@H]2O)[C@@H]1O[C@@H]1O[C@@H](C)[C@@H](O)[C@@H](O)[C@@H]1O (stereo partly drawn) [8H, Fucα1-2Galβ1-4(Fucα1-3)GlcNAcβ1-3Galβ1-4Glc]
15 | 0.24 ± 0.02 | CC(=O)NC1C(OC2C(O)C(COC3OC(CO)C(OC4OC(CO)C(O)C(OC5OC(CO)C(OC6OC(CO)C(O)C(O)C6O)C(O)C5NC(C)=O)C4O)C(OC4OC(C)C(O)C(O)C4O)C3NC(C)=O)OC(OC3C(CO)OC(O)C(O)C3O)C2O)OC(CO)C(OC2OC(CO)C(O)C(O)C2O)C1O (stereo not drawn) [8N, Galβ1-3GlcNAcβ1-3Galβ1-4(Fucα1-3)GlcNAcβ1-6(Galβ1-3 GlcNAcβ1-3)Galβ1-4Glc]

— publication PMC6120924, “YesU from Bacillus subtilis preferentially binds fucosylated glycans” (Scientific Reports, 2018)
